This is an account of results in patent publication US9157102B2, “Over-expression of NADH-dependent oxidoreductase (fucO) for increasing furfural or 5-hydroxymethylfurfural tolerance” (UNIVERSITY OF FLORIDA RESEARCH FOUNDATION, INCORPORATED, priority 2011, dated 2015).

In brackets after ≈: the same amount, converted by molar mass. Where two headings read alike, the source gives them in different places.

One data set concerns the target YqhD (Escherichia coli, UniProt Q46856). The settings on record: cited from earlier work.
The target of data set [1] is T1, FucO (Escherichia coli, UniProt P0A9S1).
T1 construct: The FucO coding region was cloned into pET15b to produce pLOI4322; made in house; host or cells: E. coli BL21(λDE3) carrying pLOI4322
T1 sequence (P0A9S1 1-382): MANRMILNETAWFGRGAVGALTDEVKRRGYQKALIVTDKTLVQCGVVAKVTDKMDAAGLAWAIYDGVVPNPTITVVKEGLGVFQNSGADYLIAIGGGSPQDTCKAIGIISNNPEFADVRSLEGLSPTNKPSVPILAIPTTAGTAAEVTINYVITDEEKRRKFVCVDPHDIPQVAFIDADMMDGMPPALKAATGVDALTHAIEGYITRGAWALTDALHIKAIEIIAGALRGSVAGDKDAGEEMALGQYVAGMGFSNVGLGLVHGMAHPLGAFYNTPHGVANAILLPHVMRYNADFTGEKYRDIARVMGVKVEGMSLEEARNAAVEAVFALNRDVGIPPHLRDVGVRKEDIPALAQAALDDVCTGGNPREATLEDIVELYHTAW
The settings on record: native substrate, reference (6); cited from earlier work.

Data set [2] addresses T1, FucO. Briefly: NADH-/NADPH-dependent furan reduction by purified his-tagged FucO. The settings on record: for NADPH-dependent reductase activity: purified enzyme, NADPH as cofactor. In kind it is biochemical. The method, then:
(§1) Cultures were grown overnight to a cell density of approximately 0.66 mg dew ml^−1 (37° C.) in closed tubes containing 20 ml AM1 (50 g liter^−1 xylose, 0.1 mM IPTG and 12.5 mg liter^−1 ampicillin). Cells were harvested by centrifugation (7,000 g for 5 min, 4° C.), washed twice with 10 ml of cold sodium phosphate buffer (50 mM pH 7.0), resuspended to a cell density of 4.4 mg dew ml^−1, and disrupted in buffer containing 1 mM dithiothreitol using a Fastprep-24 (MP Biomedicals, Solon, Ohio). After clarification at 13,000 g (10 min, 4° C.), protein concentration was determined using a BCA™ Protein Assay Kit (Thermo Scientific, Rockford, Ill.). Furfural-dependent reduction was measured using NADH and NADPH by monitoring the decrease in absorbance at 340 nm (extinction coefficient of NADH of 6,220 M^−1 cm^−1; extinction coefficient of NADPH of […]). Reaction mixtures contained 200 mM phosphate buffer (pH 7.0), 10 mM furfural, and 0.2 mM NADH or NADPH. NADH-dependent and NADPH-dependent reduction of 5-HMF (10 mM) was measured in a similar fashion.
(§2) For the purification of his-tagged FucO, BL21(pLOI4322) was grown in Luria broth at 37° C. When the culture density reached 0.35 g dew liter^−1, IPTG (0.1 mM) was added to induce overexpression. After incubation for 4 h, cells were harvested (7,000 g for 5 min, 4° C.), washed once with 10 mM Tris-HCl (pH 7.1), and lysed using a French pressure cell. After clarification at 30,000 g (1 h, 4° C.), crude extracts were passed through a 0.22 μm polyvinylidene fluoride (PVDF) filter, and further purified using a 1-ml HiTrap™ nickel column (GE Healthcare, Piscataway, N.J.). Purified enzyme was dialyzed in 100 mM phosphate buffer using a Thermo Slide-A-Lyzer and quantified using the BCA™ Protein Assay Kit (Thermo Scientific, Rockford, Ill.).

For the next data set, the system named is LY180(pTrc99A). Briefly: Furfural toxicity in tube cultures, vector control. Format: cell-based. The settings on record: Escherichia coli, 48 h, read-out: minimum inhibitory concentration. How it is done:
(§3) Furfural toxicity was measured in tube cultures (13 mm by 100 mm) containing 4 ml of AM1 medium with 50 g xylose, 12.5 mg liter^−1 ampicillin, furfural, and other supplements as indicated (28, 29). Cultures were inoculated to an initial density of […] (0.1 mM) was included for fucO induction. Cell mass was measured at 550 nm after incubation for 48 h (37° C.).

For the next data set, the system named is LY180(pLOI4319). Put plainly: Furfural toxicity in tube cultures, IPTG-induced fucO. The settings on record: Escherichia coli; AM1 medium, xylose, 48 h, 37° C., 0.1 mM IPTG-induced fucO; read-out: minimum inhibitory concentration. Format: cell-based. How it is done:
as §3

Substrate in data set [3]: O=Cc1ccc(CO)o1
Put plainly: NADH-/NADPH-dependent furan reduction by purified his-tagged FucO. In kind it is biochemical, Escherichia coli. The note with it: other: substrate of purified his-tagged FucO, NADH-specific reduction; 37.0 °C. How it is done: as §1, §2

Substrate in data set [4]: O=Cc1ccco1
The data set is described as above. In kind it is biochemical, Escherichia coli. The settings on record: other: substrate of purified his-tagged FucO, NADH-specific reduction; 37.0 °C. The method, then: as §1, §2

Sequence of YqhD (Q46856 whole entry): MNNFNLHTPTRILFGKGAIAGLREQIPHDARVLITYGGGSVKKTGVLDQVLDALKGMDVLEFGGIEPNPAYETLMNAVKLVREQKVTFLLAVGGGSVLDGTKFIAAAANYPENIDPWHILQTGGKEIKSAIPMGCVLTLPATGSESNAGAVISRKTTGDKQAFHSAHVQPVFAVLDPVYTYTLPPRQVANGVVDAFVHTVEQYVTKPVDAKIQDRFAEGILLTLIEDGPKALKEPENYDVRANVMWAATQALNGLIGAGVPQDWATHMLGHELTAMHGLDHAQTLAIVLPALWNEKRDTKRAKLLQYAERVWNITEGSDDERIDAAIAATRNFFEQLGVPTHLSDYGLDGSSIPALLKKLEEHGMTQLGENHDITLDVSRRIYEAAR

Take `NC(=O)C1=CN([C@@H]2O[C@H](COP(=O)(O)OP(=O)(O)OC[C@H]3O[C@@H](n4cnc5c(N)ncnc54)[C@H](OP(=O)(O)O)[C@@H]3O)[C@@H](O)[C@H]2O)C=CC1` [NADPH]: at YqhD (read-out: Km for NADPH), the Km is 0.008 mM.
In the case of `C[C@H](O)C=O` [L-lactaldehyde], on FucO [1], the Km is 0.035 mM and the Vmax is given as 20 μmol min^−1 mg protein^−1.
In the case of `O=Cc1ccco1` [furfural], at FucO [2] (FucO), the “Vmax relative to that for L-lactaldehyde” value amounted to 10%. Besides, the NADPH-dependent reductase activity result at FucO [2] is recorded as “No NADPH-dependent furfural or 5-HMF reductase activity”. The values for the MIC in the data set on LY180(pTrc99A) and with LY180(pLOI4319) were 10 mM (≈ 961 µg/mL) and 15 mM (≈ 1440 µg/mL), respectively. For the same molecule, at YqhD (reference (29), read-out: Km for furfural), the Km is 9 mM.
On to `O=Cc1ccc(CO)o1` [5-HMF, 5-hydroxymethylfurfural], for which the NADPH-dependent reductase activity entry at FucO [2] is “No NADPH-dependent furfural or 5-HMF reductase activity”.

B1: FucO (Escherichia coli K-12) (protein)
chain: T1 sequence (P0A9S1 1-382)
notes: The FucO coding region was cloned into pET15b to produce pLOI4322; made in house; host or cells: E. coli BL21(λDE3) carrying pLOI4322
Consider B1, for which, in data set [3], the Km was found to be 0.7 ± 0.3 mM and the Vmax amounted to 0.30±0.05 mmol min^−1 mg protein^−1. Moreover, in data set [4], the Km is 0.4 ± 0.2 mM and the Vmax is listed as 1.9±0.4 mmol min^−1 mg protein^−1.
